Biological target: T1, human kinase Mps-1 (Homo sapiens, UniProt P33981)
T1 construct: N-terminally GST-tagged human full length recombinant Mps-1 kinase; GST (N); purchased Invitrogen, Karslruhe, Germany PV4071
T1 sequence (P33981 1-857): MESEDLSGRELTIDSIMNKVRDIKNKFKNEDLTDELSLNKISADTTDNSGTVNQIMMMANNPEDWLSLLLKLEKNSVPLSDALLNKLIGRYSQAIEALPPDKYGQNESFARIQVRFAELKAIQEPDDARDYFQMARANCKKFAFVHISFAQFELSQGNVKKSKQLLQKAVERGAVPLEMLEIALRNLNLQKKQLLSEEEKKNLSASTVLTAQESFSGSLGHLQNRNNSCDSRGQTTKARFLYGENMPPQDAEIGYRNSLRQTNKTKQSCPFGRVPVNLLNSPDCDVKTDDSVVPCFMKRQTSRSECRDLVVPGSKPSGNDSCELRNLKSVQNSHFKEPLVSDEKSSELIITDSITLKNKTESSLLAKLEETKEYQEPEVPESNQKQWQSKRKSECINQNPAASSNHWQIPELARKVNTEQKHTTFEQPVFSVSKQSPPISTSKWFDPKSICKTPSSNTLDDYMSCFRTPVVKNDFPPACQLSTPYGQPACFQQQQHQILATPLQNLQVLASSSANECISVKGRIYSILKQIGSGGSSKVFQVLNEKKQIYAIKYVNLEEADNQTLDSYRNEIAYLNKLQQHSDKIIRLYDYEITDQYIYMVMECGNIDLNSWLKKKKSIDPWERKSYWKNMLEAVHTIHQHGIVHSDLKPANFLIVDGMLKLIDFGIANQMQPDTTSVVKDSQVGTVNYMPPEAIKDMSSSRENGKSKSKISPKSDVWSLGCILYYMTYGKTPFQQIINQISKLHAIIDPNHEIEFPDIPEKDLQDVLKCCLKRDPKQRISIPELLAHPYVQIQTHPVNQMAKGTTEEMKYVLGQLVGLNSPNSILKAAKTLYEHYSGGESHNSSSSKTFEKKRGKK
Assay: Mps-1 kinase assay (TR-FRET)
Assay type: biochemical
Conditions: Mps-1 TR-FRET kinase assay; avg; read-out: Mps1 avg (IC50 [mol/l])
Procedure, shortened: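 Inhibition normalised between uninhibited reaction (0%) and enzyme-free wells (100%), using the blank-corrected TR-FRET 665/620 nm ratio after EDTA stop. Reaction: ~0.5 nM GST-Mps-1 full length, 10 μM ATP, 1 μM biotin-peptide, 60 min at 22 °C, after 15 min compound pre-binding, pH 7.7.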

Compound	IC50 [µM]
Cc1nsc(Nc2cnc(C(F)(F)F)cn2)c1C(=O)Nc1ccc(OCCCN(C)CCC(F)(F)F)nc1 [Example 355, 3-methyl-N-(6-{3-[methyl(3,3,3-trifluoropropyl)amino]propoxy}pyridin-3-yl)-5-{[5-(trifluoromethyl)pyrazin-2-yl]amino}-1,2-thiazole-4-carboxamide]	≥ 20
Cc1nsc(Nc2cnc(C(F)(F)F)cn2)c1C(=O)Nc1ccc(N2CCN(CCC(F)(F)F)CC2)nc1 [Example 361, 3-methyl-5-{[5-(trifluoromethyl)pyrazin-2-yl]amino}-N-{6-[4-(3,3,3-trifluoropropyl)piperazin-1-yl]pyridin-3-yl}-1,2-thiazole-4-carboxamide]	> 20
Cc1nsc(Nc2cnc(C(F)(F)F)cn2)c1C(=O)Nc1ccc(N2CCN(CCC(F)(F)F)CC2)cn1 [Example 374, 3-methyl-5-{[5-(trifluoromethyl)pyrazin-2-yl]amino}-N-{5-[4-(3,3,3-trifluoropropyl)piperazin-1-yl]pyridin-2-yl}-1,2-thiazole-4-carboxamide]	> 20
Cc1nsc(Nc2cncc(C(F)(F)F)n2)c1C(=O)Nc1ccc(F)c(OC2CCN(CCC(F)(F)F)CC2)c1 [Example 343, N-(4-fluoro-3-{[1-(3,3,3-trifluoropropyl)piperidin-4-yl]oxy}phenyl)-3-methyl-5-{[6-(trifluoromethyl)pyrazin-2-yl]amino}-1,2-thiazole-4-carboxamide]	≥ 20

The remaining lines, values ahead:

IC50 [µM]	Compound
> 20	Cc1nsc(Nc2cnc(C(F)(F)F)cn2)c1C(=O)Nc1ccc(OC[C@@H]2CCCN(CC(F)(F)F)C2)nc1 [Example 376, 3-methyl-N-(6-{[(3R)-1-(2,2,2-trifluoroethyl)piperidin-3-yl]methoxy}pyridin-3-yl)-5-{[5-(trifluoromethyl)pyrazin-2-yl]amino}-1,2-thiazole-4-carboxamide]
> 20	Cc1nsc(Nc2cnc(C(F)(F)F)cn2)c1C(=O)Nc1ccc(O[C@H]2CCN(CC(F)F)C2)nc1 [Example 382, N-(6-{[(3S)-1-(2,2-difluoroethyl)pyrrolidin-3-yl]oxy}pyridin-3-yl)-3-methyl-5-{[5-(trifluoromethyl)pyrazin-2-yl]amino}-1,2-thiazole-4-carboxamide]
≥ 20	Cc1nsc(Nc2cnc(C(F)(F)F)cn2)c1C(=O)Nc1ccc(OCC2CCCN(CCC(F)(F)F)C2)nc1 (stereo not shown) [Example 328, 3-methyl-5-{[5-(trifluoromethyl)pyrazin-2-yl]amino}-N-(6-{[1-(3,3,3-trifluoropropyl)piperidin-3-yl]methoxy}pyridin-3-yl)-1,2-thiazole-4-carboxamide]
> 20	Cc1nsc(Nc2cnc(C(F)(F)F)cn2)c1C(=O)Nc1ccc(O[C@H]2CCN(CCC(F)(F)F)C[C@@H]2F)nc1 [Example 364, N-(6-{[(3S,4S)-3-fluoro-1-(3,3,3-trifluoropropyl)piperidin-4-yl]oxy}pyridin-3-yl)-3-methyl-5-{[5-(trifluoromethyl)pyrazin-2-yl]amino}-1,2-thiazole-4-carboxamide]
≥ 20	Cc1nsc(Nc2cnc(C(F)(F)F)cn2)c1C(=O)Nc1ccc(OC2CCCN(CCF)C2)nc1 (stereo not shown) [Example 329, N-(6-{[1-(2-fluoroethyl)piperidin-3-yl]oxy}pyridin-3-yl)-3-methyl-5-{[5-(trifluoromethyl)pyrazin-2-yl]amino}-1,2-thiazole-4-carboxamide]
≥ 20	Cc1nsc(Nc2cnc(C(F)(F)F)cn2)c1C(=O)Nc1ccc(F)c(OCC2CCCN(CCF)C2)c1 (stereo not shown) [Example 336, N-(4-fluoro-3-{[1-(2-fluoroethyl)piperidin-3-yl]methoxy}phenyl)-3-methyl-5-{[5-(trifluoromethyl)pyrazin-2-yl]amino}-1,2-thiazole-4-carboxamide]
